Series [1] can be described thus: ASSAY (IV) determination of solubility. Format: physicochemical. In a few lines:
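Solubility measured by UPLC of supernatant after centrifugation, following 18 h at room temperature. Peptide ([…] in water) was diluted 1:1 into 100 mM glycylglycine (pH 3.0, 4.0, 5.0) or bistrispropane (pH 6.0-8.0).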

Another series has as its target T1, rat calcitonin receptor (Rattus norvegicus, UniProt P32214).
T1 construct: expressed in transfected cells; host or cells: BHK tk'ts 13 (transient, FuGENE 6), membranes
T1 sequence (P32214 25-479 isoform P32214-2 limits assumed): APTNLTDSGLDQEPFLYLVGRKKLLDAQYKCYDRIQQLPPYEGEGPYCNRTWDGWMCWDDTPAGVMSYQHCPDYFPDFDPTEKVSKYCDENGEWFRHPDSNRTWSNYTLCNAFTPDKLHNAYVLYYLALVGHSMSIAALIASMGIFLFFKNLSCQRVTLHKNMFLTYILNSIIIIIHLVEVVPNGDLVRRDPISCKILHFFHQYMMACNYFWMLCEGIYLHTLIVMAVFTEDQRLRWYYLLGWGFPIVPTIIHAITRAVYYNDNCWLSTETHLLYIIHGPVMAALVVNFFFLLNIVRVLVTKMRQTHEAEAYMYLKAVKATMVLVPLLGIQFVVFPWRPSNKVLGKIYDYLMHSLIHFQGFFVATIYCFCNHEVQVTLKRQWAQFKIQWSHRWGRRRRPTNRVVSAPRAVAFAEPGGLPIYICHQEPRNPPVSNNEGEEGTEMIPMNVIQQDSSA
Description: ASSAY (VIII) binding to the rat calcitonin receptor. As to conditions: Table 7, read-out: rCTR bind IC50. The procedure, abridged:
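BHK tk′ts 13 cells, transient rat calcitonin receptor transfection; DMEM + 10% FBS; harvest ~48 h post-transfection; membrane prep.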

For series [2], the target named is T2, rat amylin receptor (rat calcitonin receptor + rat RAMP 3) (Rattus norvegicus, UniProt P32214+Q9JJ73).
T2 construct: expressed in transfected cells; host or cells: BHK tk'ts 13 (transient, FuGENE 6), membranes
T2 sequence (P32214 25-479 isoform P32214-2 limits assumed): T1 sequence (P32214 25-479 isoform P32214-2 limits assumed)
T2 sequence (Q9JJ73 23-147 partner): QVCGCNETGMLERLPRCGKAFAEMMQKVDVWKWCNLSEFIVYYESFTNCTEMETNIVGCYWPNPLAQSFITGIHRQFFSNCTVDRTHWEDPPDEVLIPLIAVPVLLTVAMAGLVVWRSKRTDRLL
Description: ASSAY (VI) binding to the rat amylin receptor. As to conditions: for IC50: binding to rat amylin receptor, read-out: rAmylin-R bind IC50. The procedure, abridged:
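The cell-membrane assay assessed binding at the rat amylin receptor. BHK tk′ts 13 cells were transfected transiently with rat calcitonin receptor, with FuGENE® 6 (Roche) as the transfection reagent, used per the manufacturer's recommendations. Approximately 48 hours after transfection the cells were harvested, and membranes were prepared for measuring binding.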

Series [3] concerns the target T3, human calcitonin receptor (Homo sapiens, UniProt P30988).
T3 construct: expressed in transfected cells
T3 sequence (P30988 25-474): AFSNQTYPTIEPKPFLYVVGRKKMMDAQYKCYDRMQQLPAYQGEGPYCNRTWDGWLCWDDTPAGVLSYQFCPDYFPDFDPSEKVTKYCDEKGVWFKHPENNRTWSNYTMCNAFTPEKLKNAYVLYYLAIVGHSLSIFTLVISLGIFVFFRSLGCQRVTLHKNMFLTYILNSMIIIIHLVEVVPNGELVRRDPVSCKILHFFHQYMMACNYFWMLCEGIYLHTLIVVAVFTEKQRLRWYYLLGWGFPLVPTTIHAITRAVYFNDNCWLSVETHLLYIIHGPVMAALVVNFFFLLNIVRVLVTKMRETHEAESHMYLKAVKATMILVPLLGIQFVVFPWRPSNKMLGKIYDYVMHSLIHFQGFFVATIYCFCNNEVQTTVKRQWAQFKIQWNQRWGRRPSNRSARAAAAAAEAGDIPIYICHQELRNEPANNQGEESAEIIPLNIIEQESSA
Description: ASSAY (VII) binding to the human calcitonin receptor (SPA, 125I-Calcitonin).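 Note: cell membranes (35 ng/µL) combined with SPA beads in 40 µL of pH 7.4 Hepes buffer, 384-well format, signal counted on a TopCounter instrument.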 As to conditions: read-out: hCTR bind IC50.

The target of series [4] is T4, human calcitonin (a) receptor in BHK570 cells (Homo sapiens, UniProt P30988).
T4 construct: expressed in transfected cells
T4 sequence (P30988 25-474): T3 sequence (P30988 25-474)
Description: ASSAY (II)a functional assay, human calcitonin receptor (CRE luciferase). It is filed as cell-based. The following applies: read-out: hCTR funct. EC50. The procedure, abridged: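 Functional agonism was measured by CRE-luciferase reporter luminescence in BHK cells bearing calcitonin receptor, or calcitonin receptor plus RAMP-3 as the amylin 3(a) receptor. Stimulation lasted 3 hours at 37° C.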

Setting [5] is: bistrispropane buffer, pH 6.5, read-out: Solubility pH 6.5 Concentration.
Where [6] appears, read: bistrispropane buffer, pH 7.5, read-out: Solubility pH 7.5 Concentration.
[7] abbreviates: bistrispropane buffer, pH 6.0, read-out: Solubility pH 6.0 Concentration.
[8] abbreviates: bistrispropane buffer, pH 7.0, read-out: Solubility pH 7.0 Concentration.
[9] abbreviates: bistrispropane buffer, pH 8.0, read-out: Solubility pH 8.0 Concentration.
Setting [10] is: glycylglycine buffer, pH 3.0, read-out: Solubility pH 3.0 Concentration.
Where [11] appears, read: glycylglycine buffer, pH 4.0, read-out: Solubility pH 4.0 Concentration.
[12] abbreviates: glycylglycine buffer, pH 5.0, read-out: Solubility pH 5.0 Concentration.
[13] abbreviates: Table 7, rat binding selectivity, rCTR IC50 / rAmylin-R IC50.
The mark [14] stands for this setting: Table 7a (preferred compounds), rat binding selectivity, rCTR IC50 / rAmylin-R IC50.
[15] abbreviates: ratio of rCTR bind IC50 to rAmylin-R bind IC50.

Values after ≈ are worked out from the molar mass of the structure shown. Read-outs that look alike come from different tables or passages of the source. Numbered stars: 1 amine (or outer) side, 2 acyl side, 3 side chain; on linkers, the order of the positions; unused ones are H or OH. Bridge positions count the residues as written; N and C are the ends. Side chains are listed from the residue outwards. Peptide text beside a SMILES is read from it. * marks the point of attachment. C20 diacid = O=C(O)CCCCCCCCCCCCCCCCCCC(=O)*; γGlu = O=C(O)[C@H](CCC(=O)[*:2])N[*:1]; AEEA = NCCOCCOCC(=O)O Bounds are passed on as bounds.

As usually defined, the IC50 is the concentration needed to halve the response being measured. A word on the EC50: it is the concentration that produces a half-maximal response. As for `CC[C@H](C)[C@H](NC(=O)[C@H](C)NC(=O)CNC(=O)[C@H](Cc1ccccc1)NC(=O)[C@H](CC(N)=O)NC(=O)[C@@H]1CCCN1C(=O)[C@H](CO)NC(=O)[C@H](CO)NC(=O)[C@H](Cc1c[nH]cn1)NC(=O)[C@H](CCCNC(=N)N)NC(=O)[C@H](CC(C)C)NC(=O)[C@H](Cc1ccccc1)NC(=O)[C@H](Cc1c[nH]cn1)NC(=O)[C@H](C)NC(=O)[C@H](CC(C)C)NC(=O)[C@H](CCCNC(=N)N)NC(=O)[C@H](CCC(N)=O)NC(=O)[C@@H](NC(=O)[C@H](C)NC(=O)[C@@H]1CSSC[C@H](NC(=O)[C@@H](N)CCCCNC(=O)CC[C@H](NC(=O)CCCCCCCCCCCCCCCCCCC(=O)O)C(=O)O)C(=O)N[C@@H](CC(N)=O)C(=O)N[C@@H]([C@@H](C)O)C(=O)N[C@@H](C)C(=O)N[C@@H]([C@@H](C)O)C(=O)N1)[C@@H](C)O)C(=O)N1CCC[C@H]1C(=O)N[C@@H](CO)C(=O)N[C@@H](CO)C(=O)N[C@H](C(=O)N[C@@H](CC(N)=O)C(=O)N[C@H](C(=O)NCC(=O)N[C@@H](CO)C(=O)N[C@@H](Cc1c[nH]cn1)C(=O)N[C@H](C(=O)N[C@@H](Cc1ccc(O)cc1)C(N)=O)[C@@H](C)O)C(C)C)[C@@H](C)O` [Example 66] (H-K([γGlu-C20 diacid])CNTATCATQRLAHFLRHSSPNFGAIPSSTNVGSHTY-NH2; disulfide 2-7; N-terminus assumed), the solubility at 18 h in series [1] (setting [5]) was at least 200 µM; in series [1] (setting [6]), 131 µM (≈ 580 µg/mL); in series [1] (setting [7]), at least 200 µM; in series [1] (setting [8]), at least 200 µM; in series [1] (setting [9]) it was 52 µM (≈ 230 µg/mL); in series [1] (setting [10]), at least 200 µM. Further, the solubility at 18 h in series [1] (setting [11]) and in series [1] (setting [12]) was at least 200 µM each time. Also, in series [1] (pH 6.5 (Table 9a)), the “Solubility pH 6.5 Concentration” value is on record as “≧200 μM”. Further, the “Solubility pH 7.0 Concentration” value in series [1] (pH 7.0 (Table 9a)) is “≧200 μM”. Further, the values for the IC50 (at rat calcitonin receptor; in series [2] (Table 7); in series [3]) were 20.8 nM, 0.581 nM and 18 nM, respectively. Besides, the “Ratio rCT/rAmylin binding” value in series [2] (setting [13]), in series [2] (setting [14]) and in series [2] (setting [15]) was 35.8 in each case. In addition, in series [4], the EC50 came to 0.542 nM.

Consider `CC[C@H](C)[C@H](NC(=O)[C@H](C)NC(=O)CNC(=O)[C@H](Cc1ccccc1)NC(=O)[C@H](CC(N)=O)NC(=O)[C@@H]1CCCN1C(=O)[C@H](CO)NC(=O)[C@H](CO)NC(=O)[C@H](Cc1c[nH]cn1)NC(=O)[C@H](CCCNC(=N)N)NC(=O)[C@H](CC(C)C)NC(=O)[C@H](Cc1ccccc1)NC(=O)[C@H](Cc1c[nH]cn1)NC(=O)[C@H](C)NC(=O)[C@H](CC(C)C)NC(=O)[C@H](CCCNC(=N)N)NC(=O)[C@H](CCC(N)=O)NC(=O)[C@@H](NC(=O)[C@H](C)NC(=O)[C@@H]1CSSC[C@H](NC(=O)[C@@H](N)CCCCNC(=O)COCCOCCNC(=O)CC[C@H](NC(=O)CCCCCCCCCCCCCCCCCCC(=O)O)C(=O)O)C(=O)N[C@@H](CC(N)=O)C(=O)N[C@@H]([C@@H](C)O)C(=O)N[C@@H](C)C(=O)N[C@@H]([C@@H](C)O)C(=O)N1)[C@@H](C)O)C(=O)N1CCC[C@H]1C(=O)N[C@@H](CO)C(=O)N[C@@H](CO)C(=O)N[C@H](C(=O)N[C@@H](CC(N)=O)C(=O)N[C@H](C(=O)NCC(=O)N[C@@H](CO)C(=O)N[C@@H](CC(N)=O)C(=O)N[C@H](C(=O)N[C@@H](Cc1ccc(O)cc1)C(N)=O)[C@@H](C)O)C(C)C)[C@@H](C)O` [Example 69] (H-K([AEEA-γGlu-C20 diacid])CNTATCATQRLAHFLRHSSPNFGAIPSSTNVGSNTY-NH2; disulfide 2-7; N-terminus assumed), for which the solubility at 18 h in series [1] (setting [5]), in series [1] (setting [6]), in series [1] (setting [7]), in series [1] (setting [8]), in series [1] (setting [9]) and in series [1] (setting [10]) was at least 200 µM each time. Besides, the solubility at 18 h in series [1] (setting [11]) and in series [1] (setting [12]) was at least 200 µM in each case. The IC50 on rat calcitonin receptor worked out at 46.8 nM; in series [2] (Table 7) it was 0.45 nM; in series [3], 8.68 nM. The “Ratio rCT/rAmylin binding” value in series [2] (setting [13]), in series [2] (setting [14]) and in series [2] (setting [15]) was 104.0 each time. For the same compound, the EC50 in series [4] came out at 1.25 nM.

In the case of `CC[C@H](C)[C@H](NC(=O)[C@H](C)NC(=O)CNC(=O)[C@H](Cc1ccccc1)NC(=O)[C@H](CC(N)=O)NC(=O)[C@@H]1CCCN1C(=O)[C@H](CO)NC(=O)[C@H](CO)NC(=O)[C@H](Cc1c[nH]cn1)NC(=O)[C@H](CCCNC(=N)N)NC(=O)[C@H](CC(C)C)NC(=O)[C@H](Cc1ccccc1)NC(=O)[C@H](Cc1c[nH]cn1)NC(=O)[C@H](C)NC(=O)[C@H](CC(C)C)NC(=O)[C@H](CCCNC(=N)N)NC(=O)[C@H](CCC(N)=O)NC(=O)[C@@H](NC(=O)[C@H](C)NC(=O)[C@@H]1CSSC[C@H](NC(=O)[C@@H](N)CCCCNC(=O)CC[C@H](NC(=O)CCCCCCCCCCCCCCCCCCC(=O)O)C(=O)O)C(=O)N[C@@H](CC(N)=O)C(=O)N[C@@H]([C@@H](C)O)C(=O)N[C@@H](C)C(=O)N[C@@H]([C@@H](C)O)C(=O)N1)[C@@H](C)O)C(=O)N1CCC[C@H]1C(=O)N[C@@H](CO)C(=O)N[C@@H](CO)C(=O)N[C@H](C(=O)N[C@@H](CC(N)=O)C(=O)N[C@H](C(=O)NCC(=O)N[C@@H](CO)C(=O)N[C@@H](CC(N)=O)C(=O)N[C@H](C(=O)N[C@@H](Cc1ccc(O)cc1)C(N)=O)[C@@H](C)O)C(C)C)[C@@H](C)O` [Example 70] (H-K([γGlu-C20 diacid])CNTATCATQRLAHFLRHSSPNFGAIPSSTNVGSNTY-NH2; disulfide 2-7; N-terminus assumed), the solubility at 18 h in series [1] (setting [5]), in series [1] (setting [6]), in series [1] (setting [7]), in series [1] (setting [8]), in series [1] (setting [9]) and in series [1] (setting [10]) was at least 200 µM in each case. Besides, the solubility at 18 h in series [1] (setting [11]) and in series [1] (setting [12]) was at least 200 µM in each case. In addition, the IC50 on rat calcitonin receptor amounted to 34.2 nM; in series [2] (Table 7), 0.355 nM; in series [3], 10.3 nM. The “Ratio rCT/rAmylin binding” value in series [2] (setting [13]), in series [2] (setting [14]) and in series [2] (setting [15]) was 96.5 throughout. Also, the EC50 in series [4] stood at 0.715 nM.

Values taken from patent publication US9023789B2, “Amylin analogs and pharmaceutical compositions thereof” (Novo Nordisk A/S, priority 2012, dated 2015).
